Key:
[1] = tested on: BCL-2 G101V knock-in cell line H96 (derive from RS4;11); assay: Bcl 2-G101V Knock-In RS4;11 Cell Proliferation Assay; type: cell-based; details: Homo sapiens, RS4;11 Bcl-2 G101V knock-in clone H96, 48 hrs, CellTiter-GLO, read-out: Cellular proliferation assay (IC50, nM) RS4
In short: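 CellTiter-Glo luminescence after 48 h, 37 °C compound treatment (10 concentrations, maximum 1 μM or 10 μM) gave mean IC50 values. Cells were 50,000 per well of H96, a BCL2-G101V knock-in single clone derived from RS4;11 by Cas9 editing.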

[2] = tested on: recombinant human Bcl-2-G101V protein; assay: Bcl-2-G101V TR-FRET Assay; type: binding; details: ratio of biochemical IC50 Bcl-2 G101V / Bcl-2 WT
In short: (§1)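 Percent inhibition of the Bcl-2-G101V–ligand interaction was computed from the 490 nm to 520 nm emission ratio after 337 nm excitation, over increasing compound concentrations; a four-parameter logistic fit gave IC50.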

[3] = biological target: recombinant human Bcl-2-G101V protein (Homo sapiens (Human), UniProt P10415, G101V); assay: Bcl-2-G101V TR-FRET Assay; type: binding; details: Bcl-2 G101V mutant, TR-FRET; read-out: Biochemical assay (IC50, nM) Bcl-2 G101V
In short: as §1

[4] = tested on: RS4;11 (BCL-2 dependent acute lymphoblastic leukemia cell line); assay: RS4;11 Cell Proliferation Assay; type: cell-based; details: Homo sapiens, RS4-11, RS4;11 cells, read-out: Cellular proliferation assay (IC50, nM) RS4
In short: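 Viability measured via CellTiter-Glo luminescence after a 48 h, 37 °C exposure to compounds (10 points, highest 1 μM). Seeding was 50,000 RS4;11 cells per well in 10% FBS RPMI-1640; IC50 given as mean.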

[5] = biological target: Recombinant human Bcl-2 protein (Homo sapiens (Human), UniProt P10415); assay: Bcl-2 TR-FRET Assay; type: binding; details: Bcl-2 wild type, TR-FRET; read-out: Biochemical assay (IC50, nM) Bcl-2 WT
In short: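 Displacement of FITC-labelled Bak peptide (0.5 nM) from 0.05 nM human Bcl-2, detected by TR-FRET with Tb-cryptate anti-6His antibody after 1 h at room temperature. Compounds, 10-point series, preincubated 0.5 h with protein in 20 mM potassium phosphate pH 7.5, 50 mM NaCl. IC50s fitted by four-parameter logistic.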

Compound: COc1c(Cl)cccc1CN1CCN(C2CC3(CCN(c4ccc(C(=O)NS(=O)(=O)c5ccc(NC[C@H]6CC[C@](C)(O)CC6)c([N+](=O)[O-])c5)c(Oc5cnc6[nH]ccc6c5)c4)CC3)C2)C(c2ccccc2C(C)C)C1 (stereo partly drawn) [Example 119, 2-((1H-pyrrolo[2,3-b]pyridin-5-yl)oxy)-4-(2-(4-(3-chloro-2-methoxybenzyl)-2-(2-isopropylphenyl)piperazin-1-yl)-7-azaspiro[3.5]nonan-7-yl)-N-((4-((((1r,4r)-4-hydroxy-4-methylcyclohexyl)methyl)amino)-3-nitrophenyl)sulfonyl)benzamide]
- IC50 [1]: 14.4 nM
- Ratio of Bcl-2 G101V/WT [2]: 8.5
- IC50 [3]: 3.1 nM
- IC50 [4]: 1.44 nM
- IC50 [5]: 0.37 nM

Compound: CC(C)c1ccccc1C1CN(Cc2cccc3ccoc23)CCN1C1CC2(CCN(c3ccc(C(=O)NS(=O)(=O)c4ccc(NC[C@H]5CC[C@](C)(O)CC5)c([N+](=O)[O-])c4)c(Oc4cnc5[nH]ccc5c4)c3)CC2)C1 (stereo partly drawn) [Example 137, 2-((1H-pyrrolo[2,3-b]pyridin-5-yl)oxy)-4-(2-(4-(benzofuran-7-ylmethyl)-2-(2-isopropylphenyl)piperazin-1-yl)-7-azaspiro[3.5]nonan-7-yl)-N-((4-((((1r,4r)-4-hydroxy-4-methylcyclohexyl)methyl)amino)-3-nitrophenyl)sulfonyl)benzamide]
- IC50 [1]: 9.6 nM
- Ratio of Bcl-2 G101V/WT [2]: 5.1
- IC50 [3]: 3.2 nM
- IC50 [4]: 0.89 nM
- IC50 [5]: 0.62 nM

Compound: CCc1ccccc1C1CN(Cc2ccc(OC)cc2)CCN1C1CC2(CCN(c3ccc(C(=O)NS(=O)(=O)c4ccc(NC[C@H]5CC[C@](C)(O)CC5)c([N+](=O)[O-])c4)c(Oc4cnc5[nH]ccc5c4)c3)CC2)C1 (stereo partly drawn) [Example 76, 2-((1H-pyrrolo[2,3-b]pyridin-5-yl)oxy)-4-(2-(2-(2-ethylphenyl)-4-(4-methoxybenzyl)piperazin-1-yl)-7-azaspiro[3.5]nonan-7-yl)-N-((4-((((1r,4r)-4-hydroxy-4-methylcyclohexyl)methyl)amino)-3-nitrophenyl)sulfonyl)benzamide]
- IC50 [1]: 6.5 nM
- Ratio of Bcl-2 G101V/WT [2]: 17
- IC50 [3]: 1.3 nM
- IC50 [4]: 0.69 nM
- IC50 [5]: 0.074 nM

Compound: COc1ccc(CN2CCN(C3CC4(CCN(c5ccc(C(=O)NS(=O)(=O)c6cc7c(c([N+](=O)[O-])c6)N[C@H](C[C@H]6CC[C@H](O)CC6)CO7)c(Oc6cnc7[nH]ccc7c6)c5)CC4)C3)[C@H](c3ccccc3C(C)C)C2)cc1 [Example 221]
- IC50 [1]: 0.92 nM
- Ratio of Bcl-2 G101V/WT [2]: 3.4
- IC50 [3]: 0.27 nM
- IC50 [4]: 0.16 nM
- IC50 [5]: 0.08 nM

Compound: COc1cccc(CN2CCN(C3CC4(CCN(c5ccc(C(=O)NS(=O)(=O)c6ccc(NC[C@H]7CC[C@](C)(O)CC7)c([N+](=O)[O-])c6)c(Oc6cnc7[nH]ccc7c6)c5)CC4)C3)C(c3ccccc3C(C)C)C2)c1 (stereo partly drawn) [Example 44, 2-((1H-pyrrolo[2,3-b]pyridin-5-yl)oxy)-N-((4-((((1r,4r)-4-hydroxy-4-methylcyclohexyl)methyl)amino)-3-nitrophenyl)sulfonyl)-4-(2-(2-(2-isopropylphenyl)-4-(3-methoxybenzyl)piperazin-1-yl)-7-azaspiro[3.5]nonan-7-yl) benzamide]
- IC50 [1]: 3.31 nM
- Ratio of Bcl-2 G101V/WT [2]: 2.8
- IC50 [3]: 0.84 nM
- IC50 [4]: 0.5 nM
- IC50 [5]: 0.3 nM

Compound: COc1cc(CN2CCN(C3CC4(CCN(c5ccc(C(=O)NS(=O)(=O)c6ccc(NC[C@H]7CC[C@](C)(O)CC7)c([N+](=O)[O-])c6)c(Oc6cnc7[nH]ccc7c6)c5)CC4)C3)C(c3ccccc3C(C)C)C2)cc(Cl)c1OC (stereo partly drawn) [Example 148, 2-((1H-pyrrolo[2,3-b]pyridin-5-yl)oxy)-4-(2-(4-(3-chloro-4,5-dimethoxybenzyl)-2-(2-isopropylphenyl)piperazin-1-yl)-7-azaspiro[3.5]nonan-7-yl)-N-((4-((((1r,4r)-4-hydroxy-4-methylcyclohexyl)methyl)amino)-3-nitrophenyl)sulfonyl)benzamide]
- IC50 [1]: 2.81 nM
- Ratio of Bcl-2 G101V/WT [2]: 3.6
- IC50 [3]: 2 nM
- IC50 [4]: 0.46 nM
- IC50 [5]: 0.56 nM

Compound: COc1cc(CN2CCN(C3CC4(C3)CN(c3ccc(C(=O)NS(=O)(=O)c5ccc(NC[C@H]6CC[C@](C)(O)CC6)c([N+](=O)[O-])c5)c(Oc5cnc6[nH]ccc6c5)c3)C4)[C@H](c3ccccc3C(C)C)C2)ccc1C(F)(F)F [Example 290, 2-((1H-pyrrolo[2,3-b]pyridin-5-yl)oxy)-N-((4-((((1r,4r)-4-hydroxy-4-methylcyclohexyl)methyl)amino)-3-nitrophenyl)sulfonyl)-4-(6-((R)-2-(2-isopropylphenyl)-4-(3-methoxy-4-(trifluoromethyl)benzyl)piperazin-1-yl)-2-azaspiro [3.3]heptan-2-yl)benzamide]
- IC50 [1]: 1.5 nM
- Ratio of Bcl-2 G101V/WT [2]: 2.5
- IC50 [3]: 2.2 nM
- IC50 [4]: 0.2 nM
- IC50 [5]: 0.9 nM

Compound: COc1cc(CN2CCN(C3CC4(C3)CN(c3ccc(C(=O)NS(=O)(=O)c5ccc(NC[C@H]6CC[C@](C)(O)CC6)c([N+](=O)[O-])c5)c(Oc5cnc6[nH]cc(F)c6c5)c3)C4)[C@H](c3ccccc3C(C)C)C2)ccc1C(C)C [Example 269, 2-((3-fluoro-1H-pyrrolo[2,3-b]pyridin-5-yl)oxy)-N-((4-((((1r,4r)-4-hydroxy-4-methylcyclohexyl)methyl)amino)-3-nitrophenyl)sulfonyl)-4-(6-((R)-4-(4-isopropyl-3-methoxybenzyl)-2-(2-isopropylphenyl)piperazin-1-yl)-2-azaspiro[3.3]heptan-2-yl) benzamide]
- IC50 [1]: 0.41 nM
- Ratio of Bcl-2 G101V/WT [2]: 2.4
- IC50 [3]: 4.9 nM
- IC50 [4]: 0.17 nM
- IC50 [5]: 2.1 nM

Compound: CC(C)c1ccccc1[C@@H]1CN(C2CC2)CCN1C1CC2(CCN(c3ccc(C(=O)NS(=O)(=O)c4ccc(NC[C@H]5CC[C@](C)(O)CC5)c([N+](=O)[O-])c4)c(Oc4cnc5[nH]ccc5c4)c3)CC2)C1 (single isomer, unassigned) [Example 4, 2-((1H-pyrrolo[2,3-b]pyridin-5-yl)oxy)-4-(2-((R or S)-4-cyclopropyl-2-(2-isopropylphenyl)piperazin-1-yl)-7-azaspir[3.5]nonan-7-yl)-N-((4-((((1r,4r)-4-hydroxy-4-methylcyclohexyl)methyl)amino)-3-nitrophenyl)sulfonyl)benzamide]
- IC50 [1]: 9.56 nM
- Ratio of Bcl-2 G101V/WT [2]: 35.6
- IC50 [3]: 1.6 nM
- IC50 [4]: 0.87 nM
- IC50 [5]: 0.045 nM

Compound: CCc1ccc(CN2CCN(C3CC4(CCN(c5ccc(C(=O)NS(=O)(=O)c6ccc(NC[C@H]7CC[C@](C)(O)CC7)c([N+](=O)[O-])c6)c(Oc6cnc7[nH]ccc7c6)c5)CC4)C3)C(c3ccccc3C(C)C)C2)cc1 (stereo partly drawn) [Example 153]
- IC50 [1]: 6.48 nM
- Ratio of Bcl-2 G101V/WT [2]: 4.4
- IC50 [3]: 2.7 nM
- IC50 [4]: 0.75 nM
- IC50 [5]: 0.6 nM

Compound: CC(C)c1ccccc1[C@@H]1CN(Cc2ccnc3c2OC(C)(C)CO3)CCN1C1CC2(C1)CN(c1ccc(C(=O)NS(=O)(=O)c3ccc(NC[C@H]4CC[C@](C)(O)CC4)c([N+](=O)[O-])c3)c(Oc3cnc4[nH]cc(F)c4c3)c1)C2 [Example 313, 4-(6-((R)-4-((2,2-dimethyl-2,3-dihydro-[1,4]dioxino[2,3-b]pyridin-8-yl)methyl)-2-(2-isopropylphenyl)piperazin-1-yl)-2-azaspiro[3.3]heptan-2-yl)-2-((3-fluoro-1H-pyrrolo[2,3-b]pyridin-5-yl)oxy)-N-((4-((((1r,4r)-4-hydroxy-4-methylcyclohexyl)methyl)amino)-3-nitrophenyl)sulfonyl)benzamide]
- IC50 [1]: 0.4 nM
- Ratio of Bcl-2 G101V/WT [2]: 3.9
- IC50 [3]: 0.19 nM
- IC50 [4]: 0.18 nM
- IC50 [5]: 0.048 nM

Compound: COc1ccc(CN2CCN(C3CC4(C3)CN(c3ccc(C(=O)NS(=O)(=O)c5ccc(NC[C@H]6CC[C@](C)(O)CC6)c([N+](=O)[O-])c5)c(Oc5cnc6[nH]ccc6c5)c3)C4)[C@H](c3ccccc3C(C)C)C2)cn1 [Example 254, 2-((1H-pyrrolo[2,3-b]pyridin-5-yl)oxy)-N-((4-((((1r,4r)-4-hydroxy-4-methylcyclohexyl)methyl)amino)-3-nitrophenyl)sulfonyl)-4-(6-((R)-2-(2-isopropylphenyl)-4-((6-methoxypyridin-3-yl)methyl)piperazin-1-yl)-2-azaspiro[3.3]heptan-2-yl)benzamide]
- IC50 [1]: 0.25 nM
- Ratio of Bcl-2 G101V/WT [2]: 3.9
- IC50 [3]: 0.067 nM
- IC50 [4]: 0.09 nM
- IC50 [5]: 0.017 nM
